# Results published in patent US11673892B2, “Bicyclic compounds for use as RIP1 kinase inhibitors” (Genentech, Inc., priority 2017, dated 2023).
# Biological target: T1, human RIP1 kinase domain (2-375) (Homo sapiens, UniProt Q13546)
# T1 construct: Purified human RIP1 kinase domain (2-375) (50 nM); made in house; host or cells: baculovirus-infected insect cells
# T1 sequence (Q13546 2-375): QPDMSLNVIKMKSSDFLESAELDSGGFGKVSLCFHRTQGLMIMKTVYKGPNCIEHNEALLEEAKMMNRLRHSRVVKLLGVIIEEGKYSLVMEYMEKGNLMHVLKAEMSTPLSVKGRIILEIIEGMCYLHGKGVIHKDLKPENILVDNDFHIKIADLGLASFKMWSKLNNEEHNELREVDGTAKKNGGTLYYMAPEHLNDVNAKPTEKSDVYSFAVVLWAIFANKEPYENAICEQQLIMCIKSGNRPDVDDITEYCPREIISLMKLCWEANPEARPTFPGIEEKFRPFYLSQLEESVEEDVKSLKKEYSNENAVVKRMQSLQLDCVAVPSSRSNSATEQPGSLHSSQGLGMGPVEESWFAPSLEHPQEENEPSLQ
# Experiment: RIP1 kinase inhibition biochemical assay (Transcreener ADP, fluorescence polarization)
# Details: Ki app (Morrison tight-binding fit); 50 nM enzyme, 50 uM ATP, 2 hours incubation
# Protocol: RIP1 Kinase Inhibition Assays (Biochemical Assay)
# The compounds of the present invention were tested for their capacity to inhibit RIP1K activity as described below.
# The ability of the receptor interacting protein kinase (RIPK1) to catalyze the hydrolysis of adenosine-5′-triphosphate (ATP) is monitored using the Transcreener ADP (adenosine-5′-diphosphate) assay (BellBrook Labs). Purified human RIP1 kinase domain (2-375) (50 nM) derived from a baculovirus-infected insect cell expression system is incubated with test compounds for 2 hours in 50 mM Hepes buffer (pH 7.5) containing 30 mM MgCl2, 1 mM dithiothreitol, 50 uM ATP, 0.002% Brij-35, and 0.5% dimethyl sulfoxide (DMSO). Reactions are quenched by the addition of 1× Bell Brooks Stop buffer B (20 mM Hepes (ph7.5), 40 mM ethylenediaminetetraacetic acid and 0.02% Brij-35) containing an additional 12 mM EDTA and 55 ug/mL ADP2 antibody and 4 nM ADP-AlexaFluor® 633 tracer. The tracer bound to the antibody is displaced by the ADP generated during the RIP1K reaction, which causes a decrease in fluorescence polarization that is measured by laser excitation at 633 nm with a FP microplate reader M1000. Fractional activity was plotted against test article concentration. Using Genedata Screener software (Genedata; Basel, Switzerland), the data were fit to the tight-binding apparent inhibition constant (Ki^app) Morrison equation [Williams, J. W. and Morrison, J. F. (1979) The kinetics of reversible tight-binding inhibition. Methods Enzymol 63: 437-67]. The following equation was used to calculate fractional activity and Ki^app:
# [formula] where [E]T and [I]T are the total concentrations of active enzyme and test article, respectively.
# Exemplary compounds of the present invention are provided in Table 1 along with their physiochemical characterization and in vitro RIP1 kinase inhibitory activity data. “Method” in the first column of each table refers to the synthetic method(s) used to prepare each compound as shown in the Examples above. In certain examples, chiral column retention times (min) are provided for certain stereoisomers. Unless otherwise specified, the stereochemistry shown in each structure represents relative configuration of a single stereoisomer, and absolute configuration (i.e., “R” and/or “S”) is arbitrarily assigned. In some embodiments, where the Method is described to include the separation of stereoisomers, a single stereoisomer of a compound of Table 1 is provided.
row,SMILES,Ki [nM]
1,"CC[C@@H](F)c1nc2n(n1)[C@H](c1ccccc1)C[C@@H]2F (racemic) [Example 7, rac-(5S,7S)-7-fluoro-5-phenyl-2-[rac-(1R)-1-fluoropropyl]-6,7-dihydro-5H-pyrrolo[1,2-b][1,2,4]triazole]",4
2,"CC1(C)CC1c1nc2n(n1)[C@H](c1ccccc1)C[C@@H]2F (stereo partly drawn) [Example 30, (5S,7S)-2-(2,2-dimethylcyclopropyl)-7-fluoro-5-phenyl-6,7-dihydro-H-pyrrolo[1,2-b][1,2,4]triazole]",81
3,"Cc1ccc2c(c1)nnn2-c1nc2n(n1)[C@H](c1ccccc1)C[C@@H]2F (racemic) [Example 88, 5-methyl-1-[rac-(5S,7S)-7-fluoro-5-phenyl-6,7-dihydro-5H-pyrrolo[1,2-b][1,2,4]triazol-2-yl]benzotriazole]",45
4,"CCCc1nc2n(n1)[C@H](c1ccccc1)C[C@@H]2F (single isomer, unassigned) [Example 14]",28
5,"F[C@H]1C[C@@H](c2ccccc2)n2nc(-n3ccnc3)nc21 (single isomer, unassigned) [Example 66]",890
6,"Fc1ccccc1[C@@H]1C[C@H](F)c2nc(C(F)(F)C3CC3)nn21 (single isomer, unassigned) [Example 104]",4
7,"Cc1nn(-c2nc3n(n2)[C@H](c2ccccc2)C[C@@H]3F)cc1C#N (single isomer, unassigned) [Example 92]",250
8,"N#Cc1ccc2c(c1)nnn2-c1nc2n(n1)[C@H](c1ccccc1)C[C@@H]2F (racemic) [Example 85, 1-[rac-(5S,7S)-7-fluoro-5-phenyl-6,7-dihydro-5H-pyrrolo[1,2-b][1,2,4]triazol-2-yl]benzotriazole-5-carbonitrile]",19
9,"F[C@H]1C[C@@H](c2ccccc2)n2nc(C3CC3(F)F)nc21 (stereo partly drawn) [Example 28, (5S,7S)-2-(2,2-difluorocyclopropyl)-7-fluoro-5-phenyl-6,7-dihydro-5H-pyrrolo[1,2-b][1,2,4]triazole]",70
10,"N#CCc1nc2n(n1)[C@H](c1ccccc1)C[C@@H]2F (racemic) [Example 102, 2-[rac-(5S,7S)-7-fluoro-5-phenyl-6,7-dihydro-5H-pyrrolo[1,2-b][1,2,4]triazol-2-yl]acetonitrile]",730
11,"Cc1nn(-c2nc3n(n2)[C@H](c2ccccc2)C[C@@H]3F)c(N)c1C#N (single isomer, unassigned) [Example 65]",720
12,"CCC(F)(F)c1nc2n(n1)C(c1ccccc1)CC2F (racemic) [Example 2, Cis-2-(1,1-difluoropropyl)-7-fluoro-5-phenyl-6,7-dihydro-5H-pyrrolo[1,2-b][1,2,4]triazole]",41
13,"F[C@H]1C[C@@H](c2ccccc2)n2nc(-n3cncn3)nc21 (single isomer, unassigned) [Example 68]",190
14,"CCOC(=O)[C@@H]1C[C@H]1c1nc2n(n1)[C@H](c1ccccc1)C[C@@H]2F (mixture of isomers) [Example 21, ethyl rac-(1R,2R)-2-[(5S,7S)-7-fluoro-5-phenyl-6,7-dihydro-5H-pyrrolo[1,2-b][1,2,4]triazol-2-yl]cyclopropanecarboxylate]",100
15,"COC[C@@H]1C[C@H]1c1nc2n(n1)[C@H](c1ccccc1)C[C@@H]2F (racemic) [Example 24, (S,7S)-7-fluoro-5-phenyl-2-[rac-(1R,2R)-2-(methoxymethyl)cyclopropyl]-6,7-dihydro-5H-pyrrolo[1,2-b][1,2,4]triazole]",910
16,"F[C@H]1C[C@@H](c2ccccc2)n2nc(-n3cccn3)nc21 (single isomer, unassigned) [Example 31]",160
17,"Cc1c(C#N)cnn1-c1nc2n(n1)[C@H](c1ccccc1)C[C@@H]2F (single isomer, unassigned) [Example 93]",5
18,"CC(=O)c1cnn(-c2nc3n(n2)[C@H](c2ccccc2)C[C@@H]3F)c1 (racemic) [Example 78, 1-[1-[rac-(5S,7S)-7-fluoro-5-phenyl-6,7-dihydro-5H-pyrrolo[1,2-b][1,2,4]triazol-2-yl]pyrazol-4-yl]ethanone]",130
19,"F[C@H]1C[C@@H](c2ccccc2)n2nc(-n3ccc(C(F)(F)F)n3)nc21 (single isomer, unassigned) [Example 64]",610
20,"F[C@H]1C[C@@H](c2ccccc2)n2nc(C(F)(F)C34CC(C3)C4)nc21 [Example 42, (5S,7S)-2-[1-bicyclo[1.1.1]pentanyl(difluoro)methyl]-7-fluoro-5-phenyl-6,7-dihydro-5H-pyrrolo[1,2-b][1,2,4]triazole]",6
21,"N#Cc1cnn(-c2nc3n(n2)[C@H](c2ccccc2)C[C@@H]3F)c1 (single isomer, unassigned) [Example 54]",41
22,"N#Cc1cccc2c1cnn2-c1nc2n(n1)[C@H](c1ccccc1)C[C@@H]2F (single isomer, unassigned) [Example 72]",< 5
23,"F[C@H]1C[C@@H](c2ccccc2)n2nc(C(F)(F)C3CC3)nc21 (single isomer, unassigned) [Example 13]",3
24,"F[C@H]1C[C@@H](c2ccccc2)n2nc(CC3CC3(F)F)nc21 (stereo partly drawn) [Example 20, (5S,7S)-2-[(2,2-difluorocyclopropyl)methyl]-7-fluoro-5-phenyl-6,7-dihydro-5H-pyrrolo[1,2-b][1,2,4]triazole]",4
25,"CC[C@@](C)(F)c1nc2n(n1)[C@H](c1ccccc1)C[C@@H]2F (single isomer, unassigned) [Example 32]",18
26,"F[C@H]1C[C@@H](c2ccccc2)n2nc(CCC(F)(F)F)nc21 (single isomer, unassigned) [Example 18]",12
27,"C=C(CC)c1nc2n(n1)[C@H](c1ccccc1)C[C@@H]2F (single isomer, unassigned) [Example 97]",200

# The remaining compounds from weak to strong by Ki, led by results:
row,Ki [nM],SMILES
1,1100,"F[C@@H]1C[C@H](c2ccccc2)n2nc(CCC(F)(F)F)nc21 (single isomer, unassigned) [Example 15]"
2,840,"F[C@H](c1nc2n(n1)[C@H](c1ccccc1)C[C@@H]2F)C12CC(C1)C2 (single isomer, unassigned) [Example 46]"
3,820,"Cn1ccn(-c2nc3n(n2)[C@H](c2ccccc2)C[C@@H]3F)c1=O (single isomer, unassigned) [Example 71]"
4,130,"COc1cnn(-c2nc3n(n2)[C@H](c2ccccc2)C[C@@H]3F)c1 (single isomer, unassigned) [Example 57]"
5,130,"N#CC1CC(=Cc2nc3n(n2)[C@H](c2ccccc2)C[C@@H]3F)C1 (mixture of isomers) [Example 55, 3-[[rac-(5S,7S)-7-fluoro-5-phenyl-6,7-dihydro-5H-pyrrolo[1,2-b][1,2,4]triazol-2-yl]methylene]cyclobutanecarbonitrile]"
6,100,"C=CCc1nc2n(n1)[C@H](c1ccccc1)C[C@@H]2F (single isomer, unassigned) [Example 52]"
7,86,"F[C@H]1C[C@@H](c2ccccc2)n2nc(-n3ccnc3Cl)nc21 (single isomer, unassigned) [Example 69]"
8,83,"O[C@@H](c1nc2n(n1)[C@H](c1ccccc1)C[C@@H]2F)C1CC1 (single isomer, unassigned) [Example 35]"
9,69,"CCC(C)(F)c1nc2n(n1)C(c1ccccc1)CC2F [Example 6, Cis-(5S,7S)-2-(1-fluoro-1-methyl-propyl)-7-fluoro-5-phenyl-6,7-dihydro-5H-pyrrolo[1,2-b][1,2,4]triazole]"
10,16,"F[C@H]1C[C@@H](c2ccccc2)n2nc(CC3CCC3)nc21 (stereo in doubt) [Example 94, (5S,7S)-2-(cyclobutylmethyl)-7-fluoro-5-phenyl-6,7-dihydro-5H-pyrrolo[1,2-b][1,2,4]triazole]"
11,9,"Fc1cnn(-c2nc3n(n2)[C@H](c2ccccc2)C[C@@H]3F)c1 (single isomer, unassigned) [Example 58]"
12,4.9,"[2H][C@@](F)(c1nc2n(n1)[C@H](c1ccccc1)C[C@@H]2F)C1CC1 (single isomer, unassigned) [Example 111]"
